# In ChEMBL document CHEMBL3045007, “Aryloxyacetic esters structurally related to -Asarone as potential antifungal agents” (2010):
# Calls of active or inactive are those of the source. No cut-off for these calls is given here.
# Legend:
# [1] = test system: Cryptococcus gattii species complex; test: Antifungal activity against Cryptococcus gattii after 48 hr by broth microdilution method; format: functional, Cryptococcus bacillisporus; settings: for MIC50: Cryptococcus gattii species complex, 48 h
# [2] = test system: Cryptococcus deneoformans; test: Antifungal activity against Cryptococcus neoformans var. neoformans after 48 hr by broth microdilution method; format: functional; settings: for MIC50: Cryptococcus deneoformans, 48 h
SMILES,MIC50 [1] [µg/mL],MIC50 [2] [µg/mL],MFC>99 [1] [µg/mL],MFC>99 [2] [µg/mL],Activity ([1]; Cryptococcus bacillisporus),Activity [2]
OC(Cn1cncn1)(Cn1cncn1)c1ccc(F)cc1F [FLUCONAZOLE],4,4,–,–,–,–
CC[C@H](C)C[C@H](C)CCCCCCCCC(=O)N[C@H]1C[C@@H](O)[C@@H](NCCN)NC(=O)[C@@H]2[C@@H](O)CCN2C(=O)[C@H]([C@H](O)CCN)NC(=O)[C@H]([C@H](O)[C@@H](O)c2ccc(O)cc2)NC(=O)[C@@H]2C[C@@H](O)CN2C(=O)[C@H]([C@@H](C)O)NC1=O [CASPOFUNGIN],16,8,–,–,–,–
COc1cc(C)ccc1OCC(=O)Oc1ccc(Cl)cc1,0.5,0.25,0.5,0.25,–,–
C[C@@H]1[C@H](O)[C@@H](C)/C=C/C=C/C=C/C=C/C=C/C=C/C=C/[C@H](O[C@@H]2O[C@H](C)[C@@H](O)[C@H](N)[C@@H]2O)C[C@@H]2O[C@](O)(C[C@@H](O)C[C@@H](O)[C@H](O)CC[C@@H](O)C[C@@H](O)CC(=O)O[C@H]1C)C[C@H](O)[C@H]2C(=O)O [AMPHOTERICIN B],0.12,0.12,–,–,–,–
CCCCCOC(=O)COc1ccccc1OC,64,16,–,>64,–,–
COc1cc(C)ccc1OCC(=O)OC(C)C,0.25,64,0.25,–,–,–
CCCCCOC(=O)COc1ccccc1 [N-AMYL PHENOXYACETATE],2,16,2,64,–,–
CCC(C)n1ncn(-c2ccc(N3CCN(c4ccc(OCC5COC(Cn6cncn6)(c6ccc(Cl)cc6Cl)O5)cc4)CC3)cc2)c1=O (stereo not given) [ITRACONAZOLE],0.03,0.03,–,–,–,–
CCCCCOC(=O)COc1ccc(C)cc1OC,0.5,32,0.5,–,–,–
Cc1ccc(OCC(=O)OC(C)C)cc1 [ISOPROPYL 4-METHYLPHENOXYACETATE],128,8,–,>64,–,–
CC(=O)N1CCN(c2ccc(OCC3COC(Cn4ccnc4)(c4ccc(Cl)cc4Cl)O3)cc2)CC1 (stereo not given) [KETOCONAZOLE],0.06,0.12,–,–,–,–
CCCOC(=O)COc1ccc(C)cc1OC,0.25,2,–,–,Active,Active
CCCOC(=O)COc1cccc(OC)c1,64,0.5,–,>64,–,–
COC(=O)COc1ccccc1OC,128,0.5,–,>64,–,–
